The results in this text go back to patent US20040166178A1, “3-O-acetyl-11-ketoboswellic acid for relaxing the skin” (L'OREAL, priority 2003, published 2004).

Assay [1] has as its system human striated muscle cells innervated with explants of spinal cord and spinal ganglia from rat embryos. Description: nerve-muscle coculture model, inhibition of muscle fibre contractions. The format is cell-based. The settings on record: for contraction-inhibiting effect: test identical to Example 1. The procedure:
Three extracts of Boswellia serrata were tested on a nerve-muscle coculture model which makes it possible to recreate a motor arc by innovating human striated muscle cells with explants of spinal cord and of spinal ganglia from rat embryos.
Human muscle cells derived from human muscle samples from a healthy donor are seeded in 15 mm-diameter wells (24-well culture dishes). After culturing for 10 days, these cells form a monolayer and fuse. At this stage, spinal cord explants from 13-day-old rat embryos, containing the spinal ganglion, are deposited onto the culture.
The first muscle fibre contractions are observed after coculturing for one week.
A muscle fibre having regular contractions (at least 60 contractions per minute) is then selected in three different culture wells and the number of contractions is counted over 30 seconds using image analysis software. The extracts tested, diluted in ethanol, are then incubated for 60 seconds in these wells, at the concentrations C1 and C2 of 0.005% and 0.01%. At the end of the incubation, the number of contractions is again counted over 30 seconds.
The percentage of inhibited contractions is then determined.

The next assay concerns calcium channels. The assay is described as follows: model of calcium flux. It is filed as cell-based. To be noted: compared with beta-boswellic acid, 3-O-acetylboswellic acid and 11-ketoboswellic acid. The procedure: The four pentacyclic triterpene acids contained, according to the literature, in extract of Boswellia serrata, namely beta-boswellic acid, 3-O-acetylboswellic acid, 11-ketoboswellic acid and 3-O-acetyl-11-ketoboswellic acid, were tested in a model of calcium flux in order to evaluate their capacity for inhibiting calcium channels and therefore their ability to relax lines and smooth out expression lines.
On the technique in general: Calcium assays in cells follow changes in intracellular calcium, usually with a dye or a luminescent sensor.

Assay [2] in a line: anti-wrinkle activity in vivo.

Regarding `CC(=O)O[C@@H]1CC[C@@]2(C)[C@@H](CC[C@]3(C)[C@@H]2C(=O)C=C2[C@@H]4[C@@H](C)[C@H](C)CC[C@]4(C)CC[C@]23C)[C@@]1(C)C(=O)O` [3-O-acetyl-11-ketoboswellic acid], the contraction-inhibiting effect in assay [1] (5 μM) came out at 74.7%; in assay [1] (10 μM), 87%. Moreover, the “relaxing effect (capacity for inhibiting calcium channels)” value with calcium channels is “clearly greater than that obtained for the other three acids tested”.

On to `CN1C(=O)CN=C(c2ccccc2)c2cc(Cl)ccc21` [diazepam, reference compound], for which the muscle fibre contractions result in assay [1] (earlier demonstration by the applicant) is “inhibited muscle fibre contractions”. Moreover, in assay [2], the anti-wrinkle activity result was “demonstrated in vivo”.
